Where a name gives a salt, the structure may show the parent alone. Read-outs that look alike come from different tables or passages of the source.
What was measured:
[1] = target: T1, α1B Human Adrenergic Receptor (Homo sapiens, UniProt P35368); test: Radioligand binding, [3H]prazosin, cloned human α1B adrenergic receptor; details: cloned human receptor in LM(tk-) cell membranes, SEM and n in lines below
T1 construct: The entire coding region of α1B (1563 bp); expressed in transfected cells
T1 sequence (P35368 1-520): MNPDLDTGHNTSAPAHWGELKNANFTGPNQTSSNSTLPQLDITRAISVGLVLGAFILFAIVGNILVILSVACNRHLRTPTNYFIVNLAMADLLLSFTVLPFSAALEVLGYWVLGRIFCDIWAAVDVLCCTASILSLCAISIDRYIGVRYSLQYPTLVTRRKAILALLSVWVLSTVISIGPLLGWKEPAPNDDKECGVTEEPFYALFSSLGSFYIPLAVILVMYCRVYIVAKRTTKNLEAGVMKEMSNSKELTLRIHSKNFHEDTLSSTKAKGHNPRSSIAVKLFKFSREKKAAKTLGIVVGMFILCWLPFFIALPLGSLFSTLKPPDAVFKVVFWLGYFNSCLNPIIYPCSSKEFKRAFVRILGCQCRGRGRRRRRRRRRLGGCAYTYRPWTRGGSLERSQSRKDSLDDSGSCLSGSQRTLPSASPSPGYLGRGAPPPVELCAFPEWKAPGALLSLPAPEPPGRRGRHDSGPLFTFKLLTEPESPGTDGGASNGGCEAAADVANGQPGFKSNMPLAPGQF
Summary of the method: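 [3H]prazosin (0.5 nM) binding was run for 20 min at 37° C in pH 7.5 Tris/MgCl2/ascorbate buffer on membranes of LM(tk−) cells stably expressing the cloned receptor. Filtration through GF/B ended the reaction; 10 μM phentolamine gave nonspecific binding.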

[2] = target: T2, α2A receptor (Homo sapiens, UniProt P08913); test: Competition binding, [3H]rauwolscine, human α2A receptor
T2 construct: host or cells: LM(tk-) cells, line L-α2A
T2 sequence (P08913 1-465): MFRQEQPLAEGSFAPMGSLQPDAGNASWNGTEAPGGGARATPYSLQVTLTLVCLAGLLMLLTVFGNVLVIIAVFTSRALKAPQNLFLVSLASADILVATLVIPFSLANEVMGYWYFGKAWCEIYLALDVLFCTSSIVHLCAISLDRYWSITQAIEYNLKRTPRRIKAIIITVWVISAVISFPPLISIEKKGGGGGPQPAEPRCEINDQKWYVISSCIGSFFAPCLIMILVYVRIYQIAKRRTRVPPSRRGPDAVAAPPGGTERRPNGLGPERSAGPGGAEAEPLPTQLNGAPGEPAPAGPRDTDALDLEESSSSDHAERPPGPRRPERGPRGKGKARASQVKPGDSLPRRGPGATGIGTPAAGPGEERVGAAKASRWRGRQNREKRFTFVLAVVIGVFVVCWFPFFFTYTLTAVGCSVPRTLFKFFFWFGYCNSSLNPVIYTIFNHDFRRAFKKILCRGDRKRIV
Summary of the method: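 Cell lysates from stably transfected LM(tk−) lines are resuspended in 25 mM glycylglycine (pH 7.6 at room temperature), incubated to equilibrium with 0.5 nM [3H]rauwolscine plus competitor, then filtered through GF/B filters; 10 μM phentolamine defines nonspecific binding.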

[3] = target: T3, α1C Human Adrenergic Receptor (Homo sapiens, UniProt P35348); test: Radioligand binding, [3H]prazosin, cloned human α1C adrenergic receptor; details: cloned human receptor in LM(tk-) cell membranes, SEM and n in lines below
T3 construct: The entire coding region of α1C (1401 bp); expressed in transfected cells
T3 sequence (P35348 1-466): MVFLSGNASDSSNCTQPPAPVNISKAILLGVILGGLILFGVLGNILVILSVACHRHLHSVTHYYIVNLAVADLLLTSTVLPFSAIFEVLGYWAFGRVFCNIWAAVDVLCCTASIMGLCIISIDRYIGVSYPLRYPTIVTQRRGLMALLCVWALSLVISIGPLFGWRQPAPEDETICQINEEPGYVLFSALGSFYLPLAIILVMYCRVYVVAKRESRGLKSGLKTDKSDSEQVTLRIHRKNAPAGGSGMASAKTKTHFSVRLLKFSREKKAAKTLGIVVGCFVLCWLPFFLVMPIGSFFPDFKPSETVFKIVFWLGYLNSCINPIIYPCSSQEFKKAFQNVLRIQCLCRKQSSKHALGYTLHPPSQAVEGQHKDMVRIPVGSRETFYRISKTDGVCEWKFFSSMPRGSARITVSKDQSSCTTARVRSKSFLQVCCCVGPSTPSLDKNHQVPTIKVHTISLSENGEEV
Summary of the method: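 LM(tk−) membranes (stable human α1C); [3H]prazosin 0.5 nM; 37° C., 20 min; Tris-HCl 50 mM/MgCl2 1 mM/ascorbate 0.1%, pH 7.5; NSB 10 μM phentolamine; GF/B filtration.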

[4] = read-out: pKi alpha-1 1b (converted)
[5] = read-out: pKi alpha-1 1c (converted)
[6] = [3H]rauwolscine, LM(tk-) cell line L-α2A, SEM and n in lines below, read-out: pKi alpha-2 2a (converted)

| Compound | Ki [1, 4] [nM] | Ki [2] [nM] | Ki [3, 5] [nM] | Ki ([1]; pKi alpha-1 1b) [nM] | Ki [2, 6] [nM] | Ki ([3]; pKi alpha-1 1c) [nM] |
| --- | --- | --- | --- | --- | --- | --- |
| COC(=O)C1=C(C)NC(C)=C(C(=O)NCCCN2CCC(c3ccccc3)(c3ccccc3)CC2)C1c1ccc(C)cc1 (stereo not drawn) [Example 19, 1,4-Dihydro-3-methoxycarbonyl-1,6-dimethyl-4-(4-methylphenyl)-5-(N-(3-(4,4-diphenylpiperidin-1-yl)propyl)carboxamido)pyridine] | 269 | 1290 | 1.35 | – | – | – |
| COC(=O)C1=C(C)NC(C)=C(C(=O)NCCCN2CCC(c3ccccc3)(c3ccccc3)CC2)C1c1ccc(F)cc1 (stereo not drawn) [Example 20, 4-(4-Fluorophenyl)-1,4-dihydro-3-methoxycarbonyl-2,6-dimethyl-5-(N-(3-(4,4-diphenylpiperidin-1-yl)propyl)carboxamido)pyridine] | 120 | 1780 | 3.8 | – | – | – |
| COC(=O)C1=C(C)NC(C)=C(C(=O)NCCCN2CCC(c3ccccc3)(c3ccccc3)CC2)C1c1ccc(OC)cc1 (stereo not drawn) [Example 21, 1,4-Dihydro-3-methoxycarbonyl-4-(4-Methoxyphenyl)-2,6-dimethyl-5-(N-(3-(4,4-diphenylpiperidin-1-yl)propyl)carboxamido)pyridine] | 204 | 2090 | 7.08 | – | – | – |
| COC(=O)C1=C(C)NC(C)=C(C(=O)NCCCN2CCC(c3ccccc3)(c3ccccc3)CC2)C1c1ccc2ccccc2c1 (stereo not drawn) [Example 22] | 138 | 1580 | 36.3 | – | – | – |
| COC(=O)C1=C(C)NC(C)=C(C(=O)NCCCN2CCC(c3ccccc3)(c3ccccc3)CC2)C1c1ccoc1 (stereo not drawn) [Example 23, 4-(3-Furyl)-1,4-dihydro-3-methoxycarbonyl-2,6-dimethyl-5-(N-(3-(4,4-diphenylpiperidin-1-yl)propyl)carboxamide)pyridine] | – | – | – | 214 | 955 | 14.5 |
| COC(=O)C1=C(C)NC(C)=C(C(=O)NCCCN2CCC(c3ccccc3)(c3ccccc3)CC2)C1c1ccc(Cl)c(Cl)c1 (stereo not drawn) [Example 24, 4-(3,4-Dichlorophenyl)-1,4-dihydro-3-methoxycarbonyl-2,6-dimethyl-5-(3-(D 44-diphenylpiperidin-1-yl)propylcarboxamido)pyridine] | 115 | 912 | 1.86 | – | – | – |
| COC(=O)C1=C(C)NC(C)=C(C(=O)NCCCN2CCC(c3ccccc3)(c3ccccc3)CC2)C1c1ccc(C(=O)OC)cc1 (stereo not drawn) [Example 25, 1,4-Dihydro-3-methoxycarbonyl-4-(4-methoxycarbonylphenyl)-2,6-dimethyl-5-(N-(3-(4,4-diphenylpiperidin-1-yl)propyl)carboxamide)pyridine] | 331 | 1510 | 33.9 | – | – | – |
| COC(=O)C1=C(C)NC(C)=C(C(=O)NCCCN2CCC(c3ccccc3)(c3ccccc3)CC2)C1c1ccc(OC)c(OC)c1 (stereo not drawn) [Example 26] | 437 | 2140 | 7.08 | – | – | – |
| COC(=O)C1=C(C)NC(C)=C(C(=O)NCCCN2CCC(c3ccccc3)(c3ccccc3)CC2)C1c1cc(OC)c(OC)c(OC)c1 (stereo not drawn) [Example 27] | 324 | 1950 | 3.63 | – | – | – |
| COC(=O)C1=C(C)NC(C)=C(C(=O)NCCCN2CCC(c3ccccc3)(c3ccccc3)CC2)C1c1ccc([N+](=O)[O-])c(C)c1 (stereo not drawn) [Example 28] | – | – | 9.55 | 240 | 2290 | – |
| COC(=O)C1=C(C)NC(C)=C(C(=O)NCCCN2CCC(c3ccccc3)(c3ccccc3)CC2)C1c1ccc([N+](=O)[O-])c(OC)c1 (stereo not drawn) [Example 29, 1,4-Dihydro-3-methoxycarbonyl-4-(3-methoxy-4-nitrophenyl)-2,6-dimethyl-5-(N-(3-(4,4-diphenylpiperidin-1-yl)propyl)carboxamido)pyridine] | – | – | 1.48 | 141 | 692 | – |
| CC1=C(C#N)C(c2ccc([N+](=O)[O-])cc2)C(C(=O)NCCCN2CCC(c3ccccc3)(c3ccccc3)CC2)=C(C)N1 (stereo not drawn) [Example 37] | 200 | 708 | 22.9 | – | – | – |
| CC1=C(C(=O)NCCCN2CCC(c3ccccc3)(c3ccccc3)CC2)C(c2ccc([N+](=O)[O-])cc2)C2=C(CCCC2=O)N1 (stereo not drawn) [Example 40, 1,4,5,6,7,8-Hexahydro-2-methyl-4-(4-nitrophenyl)-5-oxo-3-{N-[3-(4,4-diphenylpiperidin-1-yl)propyl]}carboxamidoquinoline] | – | – | – | 275 | 1860 | 13.8 |
| CCC1=C(C(N)=O)C(c2ccc([N+](=O)[O-])cc2)C(C(=O)NCCCN2CCC(c3ccccc3)(c3ccccc3)CC2)=C(C)N1 (stereo not drawn) [Example 41, 3-Carboxamido-2-ethyl-1,4-dihydro-6-methyl-4-(4-nitrophenyl)-3-{N-[3-(4,4-diphenylpiperidin-1-yl)propyl]}carboxamidopyridine] | – | – | – | 295 | 427 | 1.82 |
| CCC1=C(C(N)=O)C(c2ccc([N+](=O)[O-])cc2)C(C(=O)NCCCN2CCC(c3ccccc3)(c3ccccc3)CC2)=C(CC)N1 (stereo not drawn) [Example 42, 5-carboxamido-2,6-diethyl-1,4-dihydro-4-(4-nitrophenyl)-3-{N-[3-(4,4-diphenylpiperidin-1-yl)propyl]}carboxamidopyridine] | – | – | – | 282 | 324 | 1.26 |
| COC(=O)C1=C(C)NC(c2ccoc2)=C(C(=O)NCCCN2CCC(c3ccccc3)(c3ccccc3)CC2)C1c1ccc([N+](=O)[O-])cc1 (stereo not drawn) [Example 43, 2-(Furan-3-yl)-, 4-dihydro-5-methoxycarbonyl-6-methyl-4-(4-nitrophenyl)-3-(N-(3-(4,4-diphenylpiperidin-1-yl)propyl)carboxamidopyridine, hydrochloride salt] | – | – | – | 182 | 661 | 2.4 |
| COC(=O)C1=C(C)NC(C)=C(C(=O)N(C)CCCN2CCC(c3ccccc3)(c3ccccc3)CC2)C1c1ccc([N+](=O)[O-])cc1 (stereo not drawn) [Example 46, hydrochloride hemihydrate] | 240 | 676 | 20.4 | – | – | – |
| COC(=O)C1=C(C)NC(C)=C(C(=O)NCCN2CCC(c3ccccc3)(c3ccccc3)CC2)C1c1ccc([N+](=O)[O-])cc1 (stereo not drawn) [Example 52, 1,4-Dihydro-3-methoxycarbonyl-2,6-dimethyl-4-(4-nitrophenyl)-5-{N-[2-(4,4-diphenylpiperidin-1-yl)ethyl]}carboxamidopyridine hydrochloride hemihydrate] | 77.6 | 513 | 8.71 | – | – | – |
| CC1=C(C(N)=O)C(c2ccc([N+](=O)[O-])cc2)C(C(=O)NCCN2CCC(c3ccccc3)(c3ccccc3)CC2)=C(C)N1 (stereo not drawn) [Example 54, 5-Carboxamide-1,4-dihydro-2,6-dimethyl-4-(4-nitrophenyl)-3-{N-[2-(4,4-diphenylpiperidin-1-yl)ethyl]}carboxamidopyridine hydrochloride hydrate] | – | – | – | 174 | 468 | 12.3 |

From US6608086B2, “Dihydropyridines and new uses thereof” (Synaptic Pharmaceutical Corporation, priority 1993, dated 2003)
